Results on 1 compound are retold here after patent US20260373132A1, “PERK INHIBITORHC-5404 IN COMBINATION WITH ANTI-PD-1 ANTIBODY AND/OR AN ANTIANGIOGENETIC AGENT FOR USE IN THE TREATMENT OF CANCER” (HIBERCELL, INC., priority 2022, published 2026).

One series has as its system pPERK in A498 tumors. The series can be described thus: pPERK in A498 tumor xenografts. In kind it is in vivo, mouse. Here is the method: Samples were put in 500 μL of Novex lysis buffer consisting of 2× Novex Tris-Glycine SDS sample buffer (ThermoFisher LC2676), 1× Phosphatase Inhibitor Cocktail III (Sigma P0044), 1× PhosphataseArrest I (Gbioscience 113P-D), 1×2-mercaptoethanol (Gibco 21985023), 1× Benzonase (EMD Millipore Corp 70746-3), and 1× Protease inhibitor cocktail tablet (Roche/Sigma 11836170001). Samples were homogenized with the Polytron and heated for 10 min at 95 °C. They were then centrifuged at max speed for 10 min and the supernatant was transferred. Protein concentrations of samples were measured using the Pierce 660 nm Protein assay kit (Thermo Scientific 22660) according to the manufacturer's instructions.
Western Blot analysis was performed on the SimpleWestern high-throughput protein analysis platform (ProteinSimple 004-650) according to manufacturer's protocol using a 12-230 kDA Separation Module (ProteinSimple SM-W004) and Total Protein Detection Module (ProteinSimple DM-TP01). Antibodies used were: (Add info for other antibodies used) pPERK (Lilly; 1:50) and PERK (Cell Signaling Technology 5683; 1:200). All protein analytes were normalized to total protein loaded on capillary. […]

Series [1] is described as follows: mouse body weight / tolerability. In kind it is in vivo. The note with it: 786-O, HC-5404 3, 10, 30 mg/kg BID and/or cabozantinib 30 mg/kg QD (FIG. 53). As for the experimental part: Body weight and tumor volume were measured twice weekly. Tumor volume was calculated using the formula [tumor volume (mm^3)=π/6×length×width^2] and plotted as means+SEM. The percentage of tumor growth inhibition was calculated at the end of the study using the formula: […], if ΔT>0, ΔT, mean tumor volume of the drug-treated group on the observation day of the study—mean tumor volume of the drug-treated group on initial day of dosing; ΔC, mean tumor volume of the control group on the observation day of the study—mean tumor volume of the control group on initial day of dosing. Regression was calculated using the formula=100×ΔT/Tinitial, if ΔT<0. Animals with >50% regressions were partial responders. Animals with tumor volume of 0 (no measurable tumor) were considered as complete responders, and animals with <50% tumor regression and 30% growth over the baseline were considered as stable disease. Animals with tumors>30% increase over the baseline were considered progressive disease. The % change in body weight was calculated by the formula (body weight on observation day−body weight on initial day)/body weight on initial day×100%.

Series [2] deals with human cord blood-derived MDSCs / CD3 T cells. Kind of series: human T cell suppression assay with human cord blood-derived MDSCs. The format is cell-based. The note with it: 500 or 750 nM (FIG. 10A, 10C). As for the experimental part: Human MDSC Preparation: Fresh cord blood was obtained from NDRI (Protocol ID #RCHA4 01). Mononuclear cells were enriched from cord blood by Lymphoprep density gradient centrifugation, followed by CD34+ cell isolation using EasySep Human Cord Blood CD34 Positive selection Kit II, and the enriched CD34+ cells were cultured in a 48-well plate (BD Falcon, Bedford, MA) at 1×10^5 cells/well/ml of IMDM complete medium (IMDM supplemented with 10% FBS, 1× penicillin-streptomycin and 2 mM L-glutamax). 100 ng/ml human GM-CSF, 100 ng/ml human G-CSF and 50 ng/ml human SCF were added to the IMDM complete medium and cells were expanded for 13-14 days in a 37 °C, 5% CO2 humidified incubator and medium was refreshed on day 7. MDSC differentiation was induced by culturing the expanded CD34+ cells in a 24 well plate at 0.1-0.15×10^6 cells/well in 2 ml of IMDM complete medium supplemented with 100 ng/ml human GM-CSF, 50 ng/mL G-CSF and 30 ng/ml IL-6 for additional 6-7 days with medium changed on day 3. […]
Human T cell Suppression Assay. […] T cell proliferation was analyzed by flow cytometry. […] The labeled cells were analyzed on a BD Fortessa cytometer and data was analyzed by FlowJo. […] Data were analyzed using one-way ANOVA with multiple comparison corrected with Dunnett test. *P<0.05; **P<0.01; ***P<0.005, ****P<0.0001 (FIGS. 10A, 10B, and 10C).

Series [3] concerns pro-angiogenic cytokines in mouse plasma. The series can be described thus: plasma pro-angiogenic cytokines, mice bearing 786-O tumors. In kind it is in vivo. As for the experimental part:
Mouse plasma sampled following 7 days of treatment with HC-5404 (30 mpk, PO, BID) and cabozantinib (30 mpk, PO, QD). Multiple cytokines associated with angiogenesis were quantified by Illumina multiplex.
Plasma analysis from mice bearing 786-O tumors, treated with HC-5404 at 3, 10, or 30 mg/kg (PO; BID) as a single agent or in combination with cabozantinib (30 mg/kg; PO; QD). Multiple cytokines associated with angiogenesis were quantified by Illumina multiplex (FIG. 86, FIG. 87, FIG. 88, FIG. 89, FIG. 90).

As for `Cc1cc(NC(=O)[C@H](O)c2cc(F)cc(F)c2)ccc1-c1cnc(N)c(C(=O)NC(C)C)c1` [HC-5404, (R)-2-amino-5-(4-(2-(3,5-difluorophenyl)-2-hydroxyacetamido)-2-methylphenyl)-N-isopropylnicotinamide], in the series on pPERK in A498 tumors (30 mg/kg PO BID, seven days (FIG. 30)), the “pPERK expression in A498” value is reported as “strongly inhibited pPERK expression”. Also, the “pPERK levels in A498” value in the series on pPERK in A498 tumors (DC-101 study, 4 days of treatment (FIG. 37)) is recorded as “inhibited the pPERK signal”. Moreover, the mouse body weight entry in series [1] was “did not affect mouse body weight”. Also, the “inhibition of T-cells by MDSCs” value in series [2] is “reduced inhibition of T-cells”. For the same compound, the VEGF-A in plasma entry in series [3] (3, 10, 30 mg/kg PO BID (FIG. 86)) is reported as “decreased in plasma by HC-5404 as a single agent in a dose-dependent fashion”. The LYVE-1 in plasma entry in series [3] (3, 10, 30 mg/kg PO BID, alone or with cabozantinib (FIG. 89)) is “decreased by HC-5404 in a dose-dependent manner”. In addition, the Syndecan in plasma entry in series [3] (3, 10, 30 mg/kg PO BID, alone or with cabozantinib (FIG. 90)) was “decreased by HC-5404 as monotherapy”.
